Earlier results in patent US5360612A, “Pharmaceutical compositions containing triazole derivatives for rectal administration” (Pfizer Inc., priority 1992, dated 1994).

Conditions: in vivo

Q: For `CN[C@@H](C)[C@H](O)c1ccccc1` [ephedrine], which “bioavailability from suppository fatty bases” value is on record?
A: Its value is “do not show good bioavailability”.
